Experimental data: ChEMBL document CHEMBL1641434, “Topical anti-inflammatory activity of boropinic acid and its natural and semi-synthetic derivatives” (2011)

Columns and labels:
Format in all cases: functional
Mus musculus [1] = assay: Antiinflammatory activity in CD1 mouse assessed as inhibition of croton oil-induced ear edema at 0.1 umol administered topically per cm'2 of ear relative to control
Mus musculus [2] = assay: Antiinflammatory activity in CD1 mouse assessed as inhibition of croton oil-induced ear edema at 1 umol administered topically per cm'2 of ear relative to control
Mus musculus [3] = assay: Antiinflammatory activity in CD1 mouse assessed as inhibition of croton oil-induced ear edema per cm'2 administered topically
Mus musculus [4] = assay: Antiinflammatory activity in CD1 mouse assessed as inhibition of croton oil-induced ear edema at 0.3 umol administered topically per cm'2 of ear relative to control

Row | Structure (SMILES) | inhibition (INH) (Mus musculus [1]) [%] | inhibition (INH) (Mus musculus [2]) [%] | ID50 (Mus musculus [3]) [µmol] | inhibition (INH) (Mus musculus [4]) [%]
1 | CC(C)=CCOc1ccc(/C=C/C(=O)O)cc1Cl | 25 | 91 | 0.26 | 49
2 | CC(C)=CCOc1ccc(/C=C/C(=O)O)cc1Br |  |  |  | 19
3 | CC(C)=CCOc1ccc(/C=C/C(=O)O)cc1[N+](=O)[O-] | 33 | 91 | 0.18 | 68
4 | CC(C)=CCOc1ccc(/C=C/C(=O)O)cc1F |  |  |  | 39
5 | CC(C)=CCOc1ccc(/C=C/C(=O)O)cc1C |  |  |  | 23
6 | CC(C)=CCOc1ccc(/C=C/C(=O)O)cc1 | 13 | 67 | 0.5 | 30
7 | CC(C)=CCOc1ccc(/C=C/C(=O)O)cc1I | 30 | 88 | 0.2 | 67
8 | CC(Cc1ccc(O)c(O)c1)C(C)Cc1ccc(O)c(O)c1 (stereo not given) [NORDIHYDROGUAIARETIC ACID] | 19 | 65 | 0.54 | 33
9 | CC(C)=CCOc1ccc(/C=C/C(=O)O)cc1N | 22 | 81 | 0.33 | 43
10 | COc1ccc2c(c1)c(CC(=O)O)c(C)n2C(=O)c1ccc(Cl)cc1 [INDOMETHACIN] | 26 | 87 | 0.23 | 62
11 | COc1cc(/C=C/C(=O)O)ccc1OCC=C(C)C [BOROPINIC ACID] | 12 | 55 | 0.72 | 36
